# From US9949980B2, “Drugs to prevent HPV infection” (Wisconsin Alumni Research Foundation, priority 2008, dated 2018)
# Like-named read-outs stand apart in the source and are kept apart here.
# What was measured:
# [1] = in vitro; details: human
# Protocol: (§1) FIG. 1. High throughout screen (HTS) for identifying inhibitors of HPV infection. Shown is a schematic showing basic steps in the HTS. […] Briefly, HPV16 pseudoviruses containing the SEAP reporter genes are analyzed for their ability to infect as judged by the levels of secreted alkaline phosphatase in the tissue culture supernatant (light grey arrows). Cell viability was assessed in parallel on the same wells (dark grey arrows). In the specific HTS carried out in this study, the compounds were added at 3 uM/1% DMSO final concentration (black arrow) 4 hours prior to infection.
# (§2) After incubation at 37° C. for 24 hrs, 35 μL of media was removed. […] Cells were incubated at 37° C. for 48 hrs. 2.5 μL of media was collected for SEAP assay using a PHOSPHA-LIGHT chemiluminescent alkaline phosphatase assay (Applied Biosystems). Cell viability was determined using the CellTiter Glo Luminescent Cell Viability Assay™ (Promega).
# [2] = system: HPV16 pseudoviruses; assay: microbe, parasite or virus in culture; format: cell-based; details: Human papillomavirus 16, HEK-293T, 48 h
# Protocol: as §1, §2
# [3] = read-out: Infectivity (SEAP Activity), 3 μM HTS standard concentration, 293T cells, 48 hrs
# [4] = read-out: Infectivity vs. viability, 3 μM HTS standard concentration, ratio infectivity/viability
Structure (SMILES),"viability at 52 h, 3 μM ([1]; Viability (CelTiter Glow))","activity at 3 µM [2, 3]","activity at 3 µM [2, 4]","viability at 52 h, 3 μM [1]"
"Cc1ccc(N2C(=O)C(Cl)=C(Nc3ccc(C)c(C)c3)C2=O)c(C)c1 [Compound 6137315, 3-chloro-1-(2,4-dimethylphenyl)-4-[(3,4-dimethylphenyl)amino]-1H-pyrrole-2,5-dione]",93.7%,55.9%,59.7%,–
"O=C1NC(=S)SC1=Cc1cc(Cl)c(OCc2ccccc2)c(Cl)c1 [Compound 6142367, 5-[4-(benzyloxy)-3,5-dichlorobenzylidene]-2-thioxo-1,3-thiazolidin-4-one]",106%,61.2%,57.9%,–
"COc1ccc(CCNc2cc(N3CCN(C(=O)c4ccc(Cl)cc4)CC3)ccc2[N+](=O)[O-])cc1OC [Compound 6144357, 5-[4-(4-chlorobenzoyl)-1-piperazinyl]-N-[2-(3,4-dimethoxyphenyl)ethyl]-2-nitroaniline]",84.6%,39.5%,46.6%,–
"Cc1nc2cc(-c3cccc(F)c3)nn2c(O)c1C [Compound 6156840, 2-(3-fluorophenyl)-5,6-dimethylpyrazolo[1,5-a]pyrimidin-7-ol]",107%,63.5%,59.2%,–
"Cc1cc(C=C2C(=O)NC(=S)N(c3ccccc3F)C2=O)c(C)n1C [Compound 6166672, 1-(2-fluorophenyl)-2-thioxo-5-[(1,2,5-trimethyl-1H-pyrrol-3-yl)methylene]dihydro-4,6(1H,5H)-pyrimidinedione]",–,53.5%,49.2%,109%
"COc1ccc(OC)c(NC(=O)CN(c2cc(OC)ccc2OC)S(C)(=O)=O)c1 [Compound 6167601, N~1~,N~2~-bis(2,5-dimethoxyphenyl)-N~2~-(methylsulfonyl)glycinamide]",109%,59.1%,54.4%,–
"CC(=O)Nc1ccccc1NC(=O)c1ccccc1I [Compound 6168016, N-[2-(acetylamino)phenyl]-2-iodobenzamide]",106%,57%,53.7%,–
"COC(=O)C1=C(C)NC2=C(C(=O)c3ccccc32)C1c1ccc(-c2ccccc2C(=O)O)o1 (stereo not drawn) [Compound 6177037, 2-{5-[3-(methoxycarbonyl)-2-methyl-5-oxo-4,5-dihydro-1H-indeno[1,2-b]pyridin-4-yl]-2-furyl}benzoic acid]",110%,64%,58.4%,–
"COc1ccc(N(CC(=O)Nc2ccc(C(C)C)cc2)S(=O)(=O)c2ccccc2)cc1Cl [Compound 6186930, N~2~-(3-chloro-4-methoxyphenyl)-N~1~-(4-isopropylphenyl)-N~2~-(phenylsulfonyl)glycinamide]",113%,37.9%,33.5%,–
"O=C(NCc1ccccn1)C(=O)Nc1ccc([N+](=O)[O-])cc1 [Compound 6198885, N-(4-nitrophenyl)-N′-(2-pyridinylmethyl)ethanediamide]",107%,57.5%,53.8%,–
"COC(=O)C1=C(C)NC2=C(C(=O)c3ccccc32)C1c1ccc(OCc2ccc([N+](=O)[O-])cc2)c(Cl)c1 (stereo not drawn) [Compound 6202416, methyl 4-{3-chloro-4-[(4-nitrobenzyl)oxy]phenyl}-2-methyl-5-oxo-4,5-dihydro-1H-indeno[1,2-b]pyridine-3-carboxylat]",123%,51.4%,42%,–
"CS(=O)(=O)N(CC(=O)Nc1cccc(Br)c1)c1ccc(Cl)cc1 [Compound 6218383, N~1~-(3-bromophenyl)-N~2~-(4-chlorophenyl)-N~2~-(methylsulfonyl)glycinamide]",101%,47.4%,46.9%,–
"CCc1ccccc1N(CC(=O)OC)S(C)(=O)=O [Compound 6226431, methyl N-(2-ethylphenyl)-N-(methylsulfonyl)glycinate]",114%,62.8%,55.2%,–
